Measurements as given in US20160122821A1, “GENETIC MARKERS OF ANTIPSYCHOTIC RESPONSE” (SUREGENE, LLC, priority 2013, published 2016).

Test system: Caucasian patients with schizophrenia (CATIE)
Test: Genetic association (linear regression, additive model) of SNP alleles with MMRM-modelled change in PANSS Total Score under antipsychotic treatment, CATIE trial
Type: in vivo, human

Structure (SMILES): OCCOCCN1CCN(C2=Nc3ccccc3Sc3ccccc32)CC1 [Quetiapine, quetiapine]
- Beta (PANSS) (AKAP9 rs35759833 allele C, P 4.46E−02): −4.62 PANSS
- Beta (PANSS) (ARSB rs25414 allele C, P 2.37E−03): −9.37 PANSS
- Beta (PANSS) (ATP2B2 rs11712897 allele C, P 2.77E−02): −3.54 PANSS
- Beta (PANSS) (C13orf35 rs4907727 allele C, P 2.16E−02): −3.58 PANSS
- Beta (PANSS) (C15orf41 rs8027206 allele A, P 2.90E−02): −3.40 PANSS
- Beta (PANSS) (CA10 rs7210687 allele C, P 2.52E−02): −3.24 PANSS
- Beta (PANSS) (CA10 rs17607202 allele C, P 3.87E−02): −3.10 PANSS
- Beta (PANSS) (CACNA2D3 rs9861155 allele A, P 2.07E−02): −4.28 PANSS
- Beta (PANSS) (CCBE1 rs12606241 allele G, P 3.38E−02): −4.12 PANSS
- Beta (PANSS) (CDH13 rs3935908 allele G, P 4.47E−02): −2.89 PANSS
- Beta (PANSS) (CDH13 rs8048616 allele C, P 2.03E−02): −3.49 PANSS
- Beta (PANSS) (CERK rs78424 allele A, P 2.86E−02): −3.60 PANSS
- Beta (PANSS) (CHRM3 rs4659552 allele A, P 3.50E−02): −3.02 PANSS
- Beta (PANSS) (CLSTN2 rs10513102 allele C, P 4.28E−02): −4.05 PANSS
- Beta (PANSS) (CNTN6 rs7646412 allele A, P 2.28E−02): −4.64 PANSS
- Beta (PANSS) (CNTNAP2 rs10240221 allele A, P 3.63E−02): −3.22 PANSS
- Beta (PANSS) (COL22A1 rs4311658 allele G, P 2.37E−03): −5.04 PANSS
- Beta (PANSS) (COL22A1 rs4442151 allele C, P 2.37E−03): −5.04 PANSS
- Beta (PANSS) (CPLX2 rs2243404 allele C, P 2.25E−02): −4.30 PANSS
- Beta (PANSS) (CSMD1 rs2616996 allele G, P 4.49E−02): −3.44 PANSS
- Beta (PANSS) (CTNNA2 rs10201249 allele A, P 2.33E−02): −4.77 PANSS
- Beta (PANSS) (CTNNA2 rs10520244 allele C, P 2.12E−02): −6.07 PANSS
- Beta (PANSS) (CTNNA2 rs17018593 allele A, P 2.95E−02): −4.25 PANSS
- Beta (PANSS) (DENND4C rs2666797 allele C, P 2.72E−02): −3.79 PANSS
- Beta (PANSS) (DGKD rs838717 allele A, P 2.74E−02): −3.38 PANSS
- Beta (PANSS) (DLC1 rs12677920 allele A, P 3.27E−02): −3.35 PANSS
- Beta (PANSS) (DLG2 rs7101982 allele C, P 4.47E−02): −2.93 PANSS
- Beta (PANSS) (DYNC1I1 rs17638044 allele C, P 2.39E−03): −8.72 PANSS
- Beta (PANSS) (ERG rs10854385 allele A, P 3.76E−02): −4.00 PANSS
- Beta (PANSS) (ESRRG rs9441544 allele C, P 2.40E−02): −4.04 PANSS
- Beta (PANSS) (ETV1 rs41505 allele C, P 2.62E−03): −4.08 PANSS
- Beta (PANSS) (EXOC2 rs1747599 allele G, P 4.44E−02): −3.71 PANSS
- Beta (PANSS) (EXOC2 rs17135234 allele A, P 3.55E−02): −4.93 PANSS
- Beta (PANSS) (FBXL2 rs6772365 allele C, P 4.07E−02): −3.45 PANSS
- Beta (PANSS) (FHIT rs12636662 allele A, P 2.18E−03): −4.62 PANSS
- Beta (PANSS) (FLJ38109 rs11167681 allele C, P 3.82E−02): −3.35 PANSS
- Beta (PANSS) (FMN2 rs1020709 allele C, P 3.77E−02): −3.38 PANSS
- Beta (PANSS) (FMNL2 rs1155779 allele C, P 2.20E−02): −3.41 PANSS
- Beta (PANSS) (FOXP1 rs831440 allele C, P 3.37E−02): −3.67 PANSS
- Beta (PANSS) (GALNTL4 rs4909979 allele C, P 2.49E−02): −5.30 PANSS
- Beta (PANSS) (GNG2 rs1343870 allele G, P 4.37E−02): −3.12 PANSS
- Beta (PANSS) (GPR116 rs9395218 allele C, P 3.77E−02): −4.73 PANSS
- Beta (PANSS) (GRID2 rs1433667 allele C, P 2.84E−03): −4.87 PANSS
- Beta (PANSS) (GRID2 rs1836115 allele A, P 3.01E−02): −3.53 PANSS
- Beta (PANSS) (GRID2 rs13103135 allele C, P 4.20E−02): −3.66 PANSS
- Beta (PANSS) (GRM8 rs17865066 allele A, P 2.61E−02): −10.79 PANSS
- Beta (PANSS) (GRM8 rs17865434 allele C, P 2.61E−02): −10.79 PANSS
- Beta (PANSS) (HAAO rs3755540 allele C, P 2.01E−02): −3.79 PANSS
- Beta (PANSS) (INMT-FAM188B;FAM188B rs10230286 allele A, P 2.09E−02): −3.51 PANSS
- Beta (PANSS) (INMT-FAM188B;FAM188B rs11972565 allele A, P 2.70E−02): −3.53 PANSS
- Beta (PANSS) (ITPR2 rs11048710 allele A, P 3.74E−02): −3.75 PANSS
- Beta (PANSS) (IYD rs2076286 allele A, P 4.24E−02): −6.69 PANSS
- Beta (PANSS) (JAG1 rs6074164 allele A, P 3.54E−02): −4.59 PANSS
- Beta (PANSS) (KCNB1 rs34467662 allele C, P 2.39E−02): −9.06 PANSS
- Beta (PANSS) (KCNIP4 rs10516363 allele A, P 3.20E−02): −3.43 PANSS
- Beta (PANSS) (KCNQ1 rs422314 allele C, P 3.83E−02): −3.18 PANSS
- Beta (PANSS) (KCNQ3 rs17659416 allele A, P 2.67E−02): −4.39 PANSS
- Beta (PANSS) (LDB2 rs3805320 allele A, P 3.90E−02): −3.16 PANSS
- Beta (PANSS) (LRFN2 rs2078460 allele A, P 3.06E−02): −3.67 PANSS
- Beta (PANSS) (LRP1B rs2380943 allele C, P 1.96E−02): −3.47 PANSS
- Beta (PANSS) (LRP1B rs34488772 allele A, P 2.80E−02): −8.41 PANSS
- Beta (PANSS) (MCPH1 rs2515509 allele C, P 2.44E−02): −5.16 PANSS
- Beta (PANSS) (MSR1 rs6981231 allele C, P 2.17E−02): −7.67 PANSS
- Beta (PANSS) (MYO10 rs26317 allele A, P 2.25E−02): −3.80 PANSS
- Beta (PANSS) (NCAM2 rs12483671 allele A, P 4.38E−02): −3.47 PANSS
- Beta (PANSS) (NLGN1 rs2861338 allele A, P 2.69E−02): −3.51 PANSS
- Beta (PANSS) (NPAS3 rs927763 allele G, P 3.26E−02): −4.45 PANSS
- Beta (PANSS) (NRG3 rs12767532 allele G, P 2.93E−02): −3.66 PANSS
- Beta (PANSS) (OPCML rs3018407 allele A, P 2.60E−02): −3.48 PANSS
- Beta (PANSS) (OPCML rs3019855 allele C, P 3.16E−02): −3.40 PANSS
- Beta (PANSS) (OPCML rs3920986 allele G, P 2.33E−02): −3.72 PANSS
- Beta (PANSS) (PARD3B rs7589114 allele C, P 4.08E−02): −3.18 PANSS
- Beta (PANSS) (PCDH15 rs2384470 allele C, P 2.33E−03): −5.21 PANSS
- Beta (PANSS) (PIKFYVE rs17699982 allele A, P 4.51E−02): −4.12 PANSS
- Beta (PANSS) (PLCG2 rs4889447 allele C, P 3.48E−02): −5.77 PANSS
- Beta (PANSS) (PLXDC2 rs989767 allele A, P 4.48E−02): −3.31 PANSS
- Beta (PANSS) (PRKG1 rs1904018 allele C, P 2.81E−02): −3.09 PANSS
- Beta (PANSS) (PTPRT rs876523 allele C, P 2.06E−02): −3.45 PANSS
- Beta (PANSS) (RGS7 rs2678780 allele A, P 2.47E−03): −4.56 PANSS
- Beta (PANSS) (RGS7 rs10802943 allele C, P 3.52E−02): −2.99 PANSS
- Beta (PANSS) (RIMBP2 rs12305517 allele C, P 2.16E−02): −5.62 PANSS
- Beta (PANSS) (ROBO2 rs1470571 allele C, P 3.50E−02): −3.69 PANSS
- Beta (PANSS) (RPRD1A rs4799835 allele A, P 4.31E−02): −3.76 PANSS
- Beta (PANSS) (SAMD4A rs8011374 allele C, P 3.60E−02): −3.17 PANSS
- Beta (PANSS) (SDK2 rs4969114 allele A, P 2.22E−02): −3.33 PANSS
- Beta (PANSS) (SGCZ rs12155874 allele A, P 3.89E−02): −3.08 PANSS
- Beta (PANSS) (SHC3 rs10122011 allele C, P 2.47E−02): −3.43 PANSS
- Beta (PANSS) (SLC35F3 rs12087906 allele G, P 3.30E−02): −9.04 PANSS
- Beta (PANSS) (SORBS1 rs4572071 allele A, P 3.25E−02): −3.66 PANSS
- Beta (PANSS) (SORBS1 rs4918911 allele C, P 4.32E−02): −3.34 PANSS
- Beta (PANSS) (ST8SIA1 rs4606528 allele C, P 3.26E−02): −3.84 PANSS
- Beta (PANSS) (STX11 rs3734228 allele C, P 3.21E−02): −9.67 PANSS
- Beta (PANSS) (STX11 rs6912580 allele C, P 3.21E−02): −9.67 PANSS
- Beta (PANSS) (TGIF1 rs12606927 allele A, P 4.02E−02): −3.49 PANSS
- Beta (PANSS) (TMC1 rs10869183 allele T, P 2.41E−02): −3.43 PANSS
- Beta (PANSS) (TMTC2 rs7974520 allele A, P 3.49E−02): −3.64 PANSS
- Beta (PANSS) (TRIM9 rs882413 allele C, P 2.00E−02): −4.35 PANSS
- Beta (PANSS) (TSC1 rs1050700 allele A, P 4.13E−02): −3.29 PANSS
- Beta (PANSS) (USP10 rs2012708 allele C, P 3.86E−02): −3.05 PANSS
- Beta (PANSS) (WWOX rs7203676 allele C, P 2.23E−02): −3.87 PANSS
